# Reference: ChEMBL document CHEMBL1201862, “PubChem BioAssay data set” (2004)
#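 Exposure lasted 48 hours, with cells grown in 96-well plates and compounds tested at five concentrations. The concentration for 50% growth inhibition is given as GI50.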 The source made the active and inactive calls. Cut-off read from the data, not from the text of the source: active = GI50 up to about 1.1 µM and inactive = higher.
# Experiments:
# Assay in all cases: NCI-60 cell line screen, 48 h
# [1] = system: ACHN
# [2] = system: NCI-H460
# [3] = system: Malme-3M
# [4] = system: LXFL 529
# [5] = system: HT-29
# [6] = system: A498
# [7] = system: RPMI-8226
# [8] = system: KM12
# [9] = system: UACC-62
# [10] = system: M14
# [11] = system: MOLT-4
# [12] = system: A549
# [13] = system: RXF 631
# [14] = system: NCI-H23
# [15] = system: HL-60
# [16] = system: SN12C
# [17] = system: NCI-H522
# [18] = system: SK-MEL-28
# [19] = system: SF-539
# [20] = system: SNB-75
# [21] = system: SW-620
# [22] = system: LOX IMVI
# [23] = system: NCI-H226
# [24] = system: COLO 205
# [25] = system: HOP-92
# [26] = system: OVCAR-4
# [27] = system: DLD-1
# [28] = system: HCT-15
# [29] = system: OVCAR-5
# [30] = system: HCT-116
# [31] = system: K562
# [32] = system: DMS-273
# [33] = system: EKVX
# [34] = system: CCRF-CEM
# [35] = system: OVCAR-8
# [36] = system: SNB-19
# [37] = system: SK-OV-3
# [38] = system: HOP-62
# [39] = system: SF-295
# [40] = system: HCC 2998
# [41] = system: TK-10
# [42] = system: KM-20L2
# [43] = system: UACC-257
# [44] = system: SR
# [45] = system: RXF 393
# [46] = system: XF498
# [47] = system: IGROV-1
# [48] = system: SK-MEL-5
# [49] = system: SNB-78
# [50] = system: 786-0
# [51] = system: CAKI-1
# [52] = system: U-251
# [53] = system: SF-268
# [54] = system: OVCAR-3
# [55] = system: DMS-114
# [56] = system: UO-31
compound,measurement,setting,value
CCCCCCCCCCCCCCCC(=O)NC1CCc2cc(O)c(O)c(O)c2-c2ccc(SC)c(=O)cc21 (stereo unspecified),GI50,[1],8.04 µM (inactive)
same,GI50,[2],5.77 µM (inactive)
same,GI50,[3],10.4 µM (inactive)
same,GI50,[4],1.44 µM (inactive)
same,GI50,[5],13.1 µM (inactive)
same,GI50,[6],19.3 µM (inactive)
same,GI50,[7],1.61 µM (inactive)
same,GI50,[8],6.22 µM (inactive)
same,GI50,[9],2.9 µM (inactive)
same,GI50,[10],8.02 µM (inactive)
same,GI50,[11],9.44 µM (inactive)
same,GI50,[12],1.49 µM (inactive)
same,GI50,[13],13.2 µM (inactive)
same,GI50,[14],1.37 µM (inactive)
same,GI50,[15],3.35 µM (inactive)
same,GI50,[16],12.9 µM (inactive)
same,GI50,[17],2.37 µM (inactive)
same,GI50,[18],6.67 µM (inactive)
same,GI50,[19],2.07 µM (inactive)
same,GI50,[20],2.62 µM (inactive)
same,GI50,[21],4.84 µM (inactive)
same,GI50,[22],12 µM (inactive)
same,GI50,[23],10.6 µM (inactive)
same,GI50,[24],5.21 µM (inactive)
same,GI50,[25],2.51 µM (inactive)
same,GI50,[26],10.3 µM (inactive)
same,GI50,[27],7.94 µM (inactive)
same,GI50,[28],6.03 µM
same,GI50,[29],12.9 µM (inactive)
same,GI50,[30],3.86 µM (inactive)
same,GI50,[31],1.89 µM (inactive)
same,GI50,[32],4.16 µM (inactive)
same,GI50,[33],19 µM (inactive)
same,GI50,[34],3.93 µM (inactive)
same,GI50,[35],7.67 µM (inactive)
same,GI50,[36],9.29 µM (inactive)
same,GI50,[37],14.4 µM (inactive)
same,GI50,[38],9.59 µM (inactive)
same,GI50,[39],3.7 µM (inactive)
same,GI50,[40],4.01 µM (inactive)
same,GI50,[41],15.8 µM (inactive)
same,GI50,[42],15.7 µM (inactive)
same,GI50,[43],11.1 µM (inactive)
same,GI50,[44],2.79 µM (inactive)
same,GI50,[45],1.46 µM (inactive)
same,GI50,[46],7.26 µM (inactive)
same,GI50,[47],8.39 µM (inactive)
same,GI50,[48],4.42 µM (inactive)
same,GI50,[49],8.55 µM (inactive)
same,GI50,[50],16.6 µM (inactive)
same,GI50,[51],13 µM (inactive)
same,GI50,[52],1.29 µM (inactive)
same,GI50,[53],5.28 µM (inactive)
same,GI50,[54],5.28 µM (inactive)
same,GI50,[55],1.94 µM (inactive)
same,GI50,[56],8.22 µM (inactive)
